Results reported in patent US12186304B2, “Method for treating cancer by combination of IAP inhibitor and modulator of immune checkpoint molecule” (ASCENTAGE PHARMA (SUZHOU) CO., LTD., priority 2018, dated 2025).

Key:
CT26 colorectal cancer = experiment: Combination therapy in CT26 mouse colorectal cancer model; format: in vivo; conditions: APG-1387 0.2 mg/kg i.v. once daily, docetaxel 8 mg/kg i.p. once weekly, anti-PD-1 200 μg/mouse i.p. twice weekly
Protocol: (§1) Cell inoculation method was used to establish a […] tumor-immunized normal mouse subcutaneous homograft tumor model: tumor cells in logarithmic growth phase were collected, counted, and then resuspended in 1×PBS. The concentration of the cell suspension was adjusted to 2.5-5×10^7/mL. Tumor cells, 5-10×10^6/0.2 mL/mouse, were inoculated subcutaneously in the right back of the immunized normal mouse with a 1 mL syringe ([…]). All animal experimental operations were strictly in accordance with standards for use and management of laboratory animals by Gima Gene Co., Ltd and Suzhou Yasheng Pharmaceutical Co., Ltd. Relevant parameters were calculated with reference to China's NMPA “Guidelines for Non-clinical Research Techniques of Cytotoxic Antitumor Drugs”.
Animal weight and tumor size were measured twice a week during the experiment. Animals were observed daily for status and the occurrence of death. Routine monitoring included the effects of tumor growth and treatment on the normal behaviors of animals, specifically including the activity, feeding and drinking, weight gain or loss, eyes, clothing hair, as well as other abnormalities of the laboratory animals. The deaths and clinical symptoms observed during the experiment were recorded in the original data. The whole process of administration, measurement of mouse weight and tumor volume was carried out in an ultra-clean bench. According to requirements of the experimental program, plasma and tumor tissue were collected, weighed and photographed for record after the end of last administration. Plasma and tumor samples were frozen at −80° C. for later use.
(§2) Tumor volume (TV) was calculated as TV=a×b^2/2, wherein a and b represented the length and width of tumor measurement, respectively.
(§3) Relative tumor volume (RTV) was calculated as RTV=Vt/V1, wherein V1 was the tumor volume at the time of grouping administration, and Vt was the tumor volume measured on day t after administration.
The evaluation index of anti-tumor activity was relative tumor proliferation rate T/C (%), and was calculated as: relative tumor proliferation rate T/C (%)=(TRTV/CRTV)×100%, wherein TRTV was RTV in treatment group, and CRTV was RTV in vehicle control group.
Tumor remission rate (%) was the number of SD (stable disease), PR (partial regression) and CR (complete regression) in tumor-bearing mice after treatment divided by the total number of mice in that group×100%. CR refers to the complete regression of the tumor, which means the tumor is inaccessible after treatment. PR refers to the partial regression of the tumor, which means tumor volume becomes smaller than before treatment. SD refers to stable tumor progression, which means tumor volume is the same as before treatment. Change of body weight (%)=(measurement of body weight−body weight when grouping)/body weight when grouping×100%.
Efficacy evaluation criteria: according to China's NMPA “Guidelines for Non-clinical Research Techniques of Cytotoxic Antitumor Drugs” (November 2006), T/C (%) value 40% and p<0.05 by statistical analysis were considered as efficacious. If the weight loss of mice exceeded 20%, or the drug-related death percentage exceeded 20%, the drug dose was considered to be severely toxic.
According to Clarke R., Issues in experimental design and endpoint analysis in the study of experimental cytotoxic agents in vivo in breast cancer and other models [J].
A tumor model of CT26 colorectal cancer mouse was established, and the combined anti-tumor effect of APG-1387 with anti-PD-1 antibody and docetaxel was evaluated on this model. The administration regimen was as follows:
APG-1387 monotherapy group: 0.2 mg/kg, intravenous injection, once daily for a total of 17 days;
Docetaxel monotherapy group: 8 mg/kg, intraperitoneal injection, once weekly for a total of 17 days;
Anti-PD-1 antibody monotherapy group: 200 μg/mouse, intraperitoneal injection, twice weekly for a total of 2.5 weeks (i.e., 17 days); […]

MC38 colon cancer = experiment: Tumor growth in MC38 homologous mouse colon cancer model; format: in vivo
Protocol: as §1, §2, §3
The evaluation index of anti-tumor activity was relative tumor proliferation rate T/C (%), and was calculated as: relative tumor proliferation rate T/C (%)=(TRTV/CRTV)×100%, wherein TRTV was RTV in treatment group, and CRTV was RTV in vehicle control group. […]

[1] = system: advanced or metastatic solid tumor; experiment: Phase I study: anti-tumor activity in all tumor types; format: in vivo, human
[2] = system: metastatic pancreatic cancer; experiment: Phase I study: anti-tumor activity in pancreatic cancer; format: in vivo, human
[3] = system: Murine MC38 colon cancer cells; experiment: Subcutaneous xenograft model of murine MC38 colon cancer; format: in vivo, female C57BL/6 mice; conditions: MC38 s.c.
Protocol: • (1) APG-1387: provided by Jiangsu Ascentage Pharmaceutical Development Co., Ltd. The batch number is R12JA076140-A2 and PAPG-1387-DP-201305A. Preserved at 4° C., away from the light and sealed. APG-1387 was administered intravenously (i.v.) or intraperitoneally (i.p.) or at a dosage of 10 mL/kg. APG-1387 was dissolved in 5% castor oil/10% PEG400/85% normal saline. • (2) Anti-PD-1 antibody: purchased from BioXcell. The article number is BE0146 and BE0273. Preserved at 4° C. and sealed. The anti-PD-1 antibody was administered intraperitoneally at a concentration of 100 μg per mice or 200 μg per mice. • (3) Isotype control (anti-IgG): purchased from BioXcell, the product number is BE0089. […]
The mice were injected subcutaneously with 0.5-10×10^6 cells or in the ovary with 6×10^6 cells in situ to build the tumor xenograft model. […] For the orthotopic model, tumor growth was measured by examining in vivo fluorescence images 10 days after inoculation. […] Body weight and tumor size were measured twice per week during the experiment. […]
Using the fluorescence imaging technique, the strength of the fluorescent signal can represent the growth and metastasis of tumors in vivo.
The tumor growth curve and the animal body weight curve were plotted, with time on the X-axis and tumor volume and animal body weight on the Y-axis. […] All data were analyzed using SPSS 18.0 (*P<0.05, **P<0.01, ***P<0.001, ****P<0.0001).

[4] = system: effector memory T cells and NK cells; experiment: Lymphocyte analysis (flow cytometry) in MC38 tumor-bearing mice; format: in vivo, mouse; conditions: MC38 model; APG-1387 0.2 mg/kg
Protocol: In the experiment of tumor-infiltrated lymphocyte analysis, tissue samples such as spleen, draining lymph node, ascites, tumor or other tissues were collected 24 hours after the last drug administration. A single cell suspension of the spleen and draining lymph nodes was obtained, and the red blood cells were lysed after centrifugation, and the cells were filtered, followed by flow cytometric staining and flow cytometry. The tumor tissue was cut and centrifuged, and the tissue was digested, the cells were filtered. Ficoll was used to separate individual nuclei. Individual nuclei were collected for corresponding antibody flow staining and flow cytometry Ascites samples were collected and centrifuged, and the cells were filtered and subjected to flow cytometry staining and flow cytometry.
The spleen, draining lymph nodes and tumor tissues of MC38 tumor-bearing mice were collected 24 hours after the last administration. Ascites of ID8-Luc tumor mice, tumor tissues of PLC/PRF/5 tumor mice were subjected to tumor infiltrating lymphocyte analysis. The proportion of lymphocytes in the APG-1387 treatment group and control group was analyzed to explore the potential mechanism of anti-tumor effect of APG-1387 combined with anti-PD-1 antibody.

## CN[C@@H](C)C(=O)N[C@H]1CN(S(=O)(=O)c2cccc(S(=O)(=O)N3CC[C@H]4CC[C@@H](C(=O)NC(c5ccccc5)c5ccccc5)N4C(=O)[C@@H](NC(=O)[C@H](C)NC)C3)c2)CC[C@H]2CC[C@@H](C(=O)NC(c3ccccc3)c3ccccc3)N2C1=O [APG-1387]
CT26 colorectal cancer
  T/C (%) value on day 18 after administration: 105%
MC38 colon cancer; APG-1387 0.2 mg/kg i.v., anti-PD-1 5 mg/kg i.p., twice weekly, 2 times
  RTV on day 14 after administration: 11.0 ± 1.2
MC38 colon cancer; day 14
  T/C (%) value on day 14 after administration: 70%
[1]
  DCR (disease control rate, SD above): 6/24
  ORR (objective response rate, CR + PR): 0
[1]; patients
  Best response: CR: 0
  Best response: PD: 15
  Best response: PR: 0
  Best response: SD: 6
[2]; 45 mg
  change of one mPC patient with confirmed SD: +6%
  treatment duration of one mPC patient with confirmed SD: > 9 cycles
[2]; pancreatic cancer
  DCR (disease control rate, SD above): 4/10
  ORR (objective response rate, CR + PR): 0
[2]; pancreatic cancer, patients
  Best response: CR: 0
  Best response: PD: 4
  Best response: PR: 0
  Best response: SD: 4
[3]
  median survival time: 33.0 days
[3]; APG-1387 0.2 mg/kg i.v., anti-PD-1 100 μg/mouse i.p., q3d x 2 doses
  T/C value on the 22nd day after administration: 69.6%
[4]
  proportion of NK cells in the spleen and lymph nodes: no significant effect
